Measurements reported in patent US4046904A, “Novel penicillin, and its preparation and use” (Sumitomo Chemical Company, Limited, priority 1975, dated 1977).
Converted amounts (≈) assume the structure as drawn. Read-outs that look alike come from different tables or passages of the source.

Key:
Pseudomonas aeruginosa [1] = assay: MIC, nutrient broth dilution (Table 5); assay type: cell-based; conditions: Pseudomonas aeruginosa strain TS, sodium salt
Description: (§1) The relative activities of Compound (I) and Compound (C) against various intraperitioneal infections in mice evaluated by the minimum inhibitory concentrations and the means median protective doses (subcutaneously administered) are shown in Table 5.
(§2) Note: Compound (I) and Compound (C) were subjected to the test in the form of the sodium salt. For each test, five male ICR-SLC strain mice were used at each dose level. MIC was determined by the nutrient broth dilution method. In determination of PD50, subsutaneous treatment was carried out three times, i.e. 1, 3 and 5 hours after infection.

Klebsiella pneumoniae [2] = assay: MIC, nutrient broth dilution (Table 5); assay type: cell-based; conditions: Klebsiella pneumoniae strain No. 1, sodium salt
Description: as §1, §2

Streptococcus faecalis [3] = assay: MIC, nutrient broth dilution (Table 5); assay type: cell-based; conditions: Enterococcus faecalis, Streptococcus faecalis strain F10, sodium salt
Description: as §1, §2

Staphylococcus aureus [4] = assay: MIC, nutrient broth dilution (Table 5); assay type: cell-based; conditions: Staphylococcus aureus strain A24, sodium salt
Description: as §1, §2

Pseudomonas aeruginosa [5] = assay: Intraperitoneal infection in mice, median protective dose (Table 5); assay type: in vivo
Description: as §1, §2

Klebsiella pneumoniae [6] = assay: as above; assay type: in vivo
Description: as §1, §2

Streptococcus faecalis [7] = assay: as above; assay type: in vivo
Description: as §1, §2

Staphylococcus aureus [8] = assay: as above; assay type: in vivo
Description: as §1, §2

[9] = Acute toxicity in mice, intraperitoneal (Table 9); conditions: mouse, in vivo, ip
Excerpt: The acute toxicity of Compound (I) and Compound (C) in ICR strain mice when administered by intraperitoneal route are shown in Table 9.
Note: Compound (I) and Compound (C) were subjected to the test in the form of the sodium salt.

Escherichia = assay: Median MIC, clinical isolates, agar-plate dilution (Table 1); assay type: cell-based; conditions: read-out: Median minimum inhibitory concentration
Description: (§3) Note: Compound (I) and Compound (A) were subjected to the test in the form of the sodium salt. The minimum inhibitory concentration (MIC) was determined using the agar-plate dilution method recommended by Japan Society of Chemotherapy.

Pseudomonas aeruginosa [10] = assay: as above; assay type: cell-based; conditions: 49 clinical isolates, sodium salt, read-out: Median minimum inhibitory concentration
Description: as §3

Klebsiella pneumoniae [11] = assay: as above; assay type: cell-based
Description: as §3

Proteus morganii = assay: as above; assay type: cell-based
Description: as §3

Serratia = assay: as above; assay type: cell-based
Description: as §3

Proteus vulgaris = assay: as above; assay type: cell-based
Description: as §3

Enterobacter aerogenes = assay: as above; assay type: cell-based
Description: as §3

Staphylococcus aureus [12] = assay: as above; assay type: cell-based; conditions: 37 clinical isolates, sodium salt, read-out: Median minimum inhibitory concentration
Description: as §3

Streptococcus faecalis [13] = assay: Median MIC, clinical isolates, agar-plate dilution (Table 4); assay type: cell-based
Description: (§4) Note: Compound (I) and Compound (C) were subjected to the test in the form of the sodium salt. MIC was determined using the agar-plate dilution method.

Staphylococcus aureus [14] = assay: as above; assay type: cell-based
Description: as §4

Pseudomonas aeruginosa [15] = assay: MIC, nutrient broth dilution (Table 2); assay type: cell-based
Description: (§5) Note: Compound (I), Compound (A) and Compound (B) were subjected to the test in the form of the sodium salt. For each test, eight male ICR-SLC strain mice were used at each dose level. MIC was determined by the nutrient broth dilution method. In determination of PD50, subcutaneous treatment was carried out twice, i.e. 1 and 4 hours after infection.

Klebsiella pneumoniae [16] = assay: MIC, nutrient broth dilution (Table 2); assay type: cell-based
Description: as §5

Escherichia coli [17] = assay: MIC, nutrient broth dilution (Table 2); assay type: cell-based
Description: as §5

[18] = pain when administered parenterally; assay type: in vivo; conditions: relative to said penicillins
Pseudomonas aeruginosa [19] = assay: Intraperitoneal infection in mice, median protective dose (Table 2); assay type: in vivo; conditions: subcutaneous; for ED50: sc, 1 and 4 hours after infection, sodium salt, read-out: PD50
Description: as §5

Klebsiella pneumoniae [20] = assay: as above; assay type: in vivo; conditions: subcutaneous; for ED50: sc, 1 and 4 hours after infection, sodium salt, read-out: PD50
Description: as §5

Escherichia coli [21] = assay: as above; assay type: in vivo; conditions: sc, subcutaneous, 1 and 4 hours after infection, sodium salt, read-out: PD50
Description: as §5

[22] = Serum level in mice after subcutaneous administration (Table 7); assay type: in vivo, ICR-SLC strain mice; conditions: mouse, sc, subcutaneous 50 mg/kg, sodium salt
Description: The peak serum concentrations of Compound (I) and Compound (C) in ICR strain mice following subcutaneous administration at 50 mg/kg are shown in Table 7.
Note: Compound (I) and Compound (C) were subjected to the test in the form of the sodium salt. For the test, three male ICR-SLC strain mice were used. The bioassay was carried out according to the disc method using Bacillus subtilis.

Q: For `CC1(C)S[C@@H]2[C@H](NC(=O)[C@H](NC(=O)c3ccnnc3O)c3ccc(O)cc3)C(=O)N2[C@H]1C(=O)O` [Compound (I), 6-[D-2-(3-hydroxypyridazine-4-carbonamido)-2-(p-hydroxyphenyl)acetamido]penicillanic acid], which MIC (Pseudomonas aeruginosa [1]) is on record?
A: 6.25 µg/mL

Q: What about the MIC (Klebsiella pneumoniae [2]) of the same compound?
A: 6.25 µg/mL

Q: And the MIC (Streptococcus faecalis [3])?
A: 1.56 µg/mL

Q: And the MIC (Staphylococcus aureus [4])?
A: 0.39 µg/mL

Q: And the “PD50 relative to Compound (C)” value (Pseudomonas aeruginosa [5]; mice, subcutaneous)?
A: inferior

Q: What about the ED50 (Pseudomonas aeruginosa [5]; sc, P. aeruginosa strain TS, male ICR-SLC mice, subcutaneous, 1, 3 and 5 hours after infection, sodium salt, read-out: PD50) of the same compound?
A: 22 mg/kg

Q: What about the “PD50 relative to Compound (C)” value (Klebsiella pneumoniae [6]; mice, subcutaneous) of the same compound?
A: approximately equal

Q: What about the ED50 (Klebsiella pneumoniae [6]; sc, K. pneumoniae strain No. 1, male ICR-SLC mice, subcutaneous, 1, 3 and 5 hours after infection, sodium salt, read-out: PD50) of the same compound?
A: 16 mg/kg

Q: And the ED50 (Streptococcus faecalis [7]; Enterococcus faecalis, sc, S. faecalis strain F10, male ICR-SLC mice, subcutaneous, 1, 3 and 5 hours after infection, sodium salt, read-out: PD50)?
A: 1.1 mg/kg

Q: And the “PD50 relative to Compound (C)” value (Streptococcus faecalis [7]; Streptococcus faecalis, mice, subcutaneous)?
A: markedly superior

Q: What about the “PD50 relative to Compound (C)” value (Staphylococcus aureus [8]; mice, subcutaneous) of the same compound?
A: markedly superior

Q: And the ED50 (Staphylococcus aureus [8]; sc, S. aureus strain A24, male ICR-SLC mice, subcutaneous, 1, 3 and 5 hours after infection, sodium salt, read-out: PD50)?
A: 2 mg/kg

Q: And the LD50 [9]?
A: 7100 mg/kg

Q: What about the MIC50 (Escherichia) of the same compound?
A: 12 µg/mL (≈ 24.6 µM)

Q: What about the MIC50 (Pseudomonas aeruginosa [10]) of the same compound?
A: 10 µg/mL

Q: What about the MIC50 (Klebsiella pneumoniae [11]; 26 clinical isolates, sodium salt, read-out: Median minimum inhibitory concentration) of the same compound?
A: 21 µg/mL

Q: And the “antibacterial activity relative to Compound (A)” value (Klebsiella pneumoniae [11]; clinical isolates)?
A: superior

Q: And the MIC50 (Proteus morganii; Morganella morganii, 14 clinical isolates, sodium salt, read-out: Median minimum inhibitory concentration)?
A: 4.4 µg/mL

Q: And the “antibacterial activity relative to Compound (A)” value (Proteus morganii; clinical isolates)?
A: superior

Q: And the MIC50 (Serratia; 6 clinical isolates, sodium salt, read-out: Median minimum inhibitory concentration)?
A: 31 µg/mL

Q: And the “antibacterial activity relative to Compound (A)” value (Serratia; clinical isolates)?
A: superior

Q: And the MIC50 (Proteus vulgaris; 7 clinical isolates, sodium salt, read-out: Median minimum inhibitory concentration)?
A: 8.8 µg/mL

Q: What about the “antibacterial activity relative to Compound (A)” value (Proteus vulgaris; clinical isolates) of the same compound?
A: superior

Q: What about the MIC50 (Enterobacter aerogenes; Klebsiella aerogenes, 8 clinical isolates, sodium salt, read-out: Median minimum inhibitory concentration) of the same compound?
A: 25 µg/mL

Q: What about the “antibacterial activity relative to Compound (A)” value (Enterobacter aerogenes; clinical isolates) of the same compound?
A: superior

Q: What about the MIC50 (Staphylococcus aureus [12]) of the same compound?
A: 13 µg/mL

Q: And the MIC50 (Streptococcus faecalis [13]; Enterococcus faecalis, 23 strains, agar-plate dilution, sodium salt, read-out: Median minimum inhibitory concentration)?
A: 2 µg/mL

Q: And the “antibacterial activity relative to Compound (C)” value (Streptococcus faecalis [13]; clinical isolates)?
A: superior

Q: And the MIC50 (Staphylococcus aureus [14]; 37 strains, agar-plate dilution, sodium salt, read-out: Median minimum inhibitory concentration)?
A: 15 µg/mL

Q: And the “antibacterial activity relative to Compound (C)” value (Staphylococcus aureus [14]; clinical isolates)?
A: superior

Q: What about the MIC (Pseudomonas aeruginosa [15]; Pseudomonas aeruginosa strain NC-5, sodium salt) of the same compound?
A: 12.5 µg/mL

Q: And the MIC (Pseudomonas aeruginosa [15]; Pseudomonas aeruginosa strain T, sodium salt)?
A: 25 µg/mL

Q: And the MIC (Klebsiella pneumoniae [16]; Klebsiella pneumoniae strain No. 1, sodium salt)?
A: 6.25 µg/mL

Q: What about the MIC (Klebsiella pneumoniae [16]; Klebsiella pneumoniae strain No. 6, sodium salt) of the same compound?
A: 25 µg/mL

Q: And the MIC (Klebsiella pneumoniae [16]; Klebsiella pneumoniae strain No. 20, sodium salt)?
A: 12.5 µg/mL

Q: And the MIC (Escherichia coli [17]; Escherichia coli strain NIHJ, sodium salt)?
A: 6.25 µg/mL

Q: What about the MIC (Escherichia coli [17]; Escherichia coli strain No. 37, sodium salt) of the same compound?
A: 12.5 µg/mL

Q: And the “pain when administered parenterally” value [18]?
A: weaker pain

Q: And the “PD50 relative to Compound (A) and Compound (B)” value (Pseudomonas aeruginosa [19]; mice)?
A: markedly superior

Q: And the ED50 (Pseudomonas aeruginosa [19]; P. aeruginosa strain NC-5, male ICR-SLC mice)?
A: 22 mg/kg

Q: What about the ED50 (Pseudomonas aeruginosa [19]; P. aeruginosa strain T, male ICR-SLC mice) of the same compound?
A: 35 mg/kg

Q: And the “PD50 relative to Compound (A) and Compound (B)” value (Klebsiella pneumoniae [20]; mice)?
A: markedly superior

Q: And the ED50 (Klebsiella pneumoniae [20]; K. pneumoniae strain No. 1, male ICR-SLC mice)?
A: 25 mg/kg

Q: And the ED50 (Klebsiella pneumoniae [20]; K. pneumoniae strain No. 6, male ICR-SLC mice)?
A: 36 mg/kg

Q: And the ED50 (Klebsiella pneumoniae [20]; K. pneumoniae strain No. 20, male ICR-SLC mice)?
A: 31 mg/kg

Q: What about the ED50 (Escherichia coli [21]; E. coli strain NIHJ, male ICR-SLC mice) of the same compound?
A: 3.2 mg/kg

Q: And the ED50 (Escherichia coli [21]; E. coli strain No. 37, male ICR-SLC mice)?
A: 31 mg/kg

Q: What about the concentration at 0.5 h ([22]; 1/2 hr.) of the same compound?
A: 35000 ng/mL

Q: What about the concentration at 0.25 h ([22]; 1/4 hr.) of the same compound?
A: 69000 ng/mL

Q: And the concentration at 1 h ([22]; 1 hr.)?
A: 14000 ng/mL

Q: What about the concentration at 2 h ([22]; 2 hr.) of the same compound?
A: 3000 ng/mL
